Experimental data taken from US4591552A, “Detection of hepatitis B surface antigen (or antibody to same) with labeled synthetic peptide” (priority 1982, dated 1986).

Tested on: antiserum to the synthetic peptide
Test: Competition immunoassay: binding to Staphylococci (protein A) of β-galactosidase-conjugated peptide 135-155 complexed with homologous antibodies
Parameters: species or system rabbit
Conditions: control antigens
Method: It is known that immunoglobulins of the IgG class attach to Staphylococci carrying protein A. If the immunoglobulins are bound to labeled antigens thus forming immune complexes, such (labeled) complexes attach to the Staphylococci. […] The above forms the basis of the following test:
250 μl of mixtures containing various unlabeled antigens, 1:125 diluted antiserum to the synthetic peptide (see Example 3 above), 1:8,000 diluted peptide-β-galactosidase conjugate (see Example 2 above) and 50 mg/ml of bovine serum albumin (BSA) were each incubated for 30 minutes at 37° C. and mixed with an equal volume of a 2.5% suspension of Staphylococci (Pansorbin, Calbiochem, LaJolla, Calif.). The bacteria were pelleted, washed with tris-buffered saline, and the adsorbed β-galactosidase corresponding to the enzyme-peptide conjugate was determined fluorometrically as described by Neurrath and Strick, J. Virol. Methods, supra. The fluorescence in the absence of unlabeled competing antigens was 900.

synthetic insulin A chain: control antigen
inhibitory effect on binding of β-galactosidase activity to the bacteria: did not have any inhibitory effect
